Data on 11 compounds can be found in patent publication US10118916B2, “Modulators of cystic fibrosis transmembrane conductance regulator protein” (AbbVie S.à.r.l., priority 2016, dated 2018).

Some results are limits rather than exact numbers.

One assay deals with T1, F508delCFTR (Homo sapiens, UniProt P13569, DEL508-508).
T1 construct: expressed in transfected cells; host or cells: CFBE41o- (human lung derived epithelial cell line), doxycycline-inducible
Description: Cell Surface Expression-Horse Radish Peroxidase (CSE-HRP) assay. The format is cell-based. The note with it: CFBE41o-F508delCFTR-HRP cells; for EC50: F508delCFTR cell surface expression, luminescence, 18-24 hours at 33° C., highest concentration 20 μM; for Maximum % activity: maximum at any tested concentration, normalized to on-plate positive control (3 μM). In short, it runs like this: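 CFBE41o- cells expressing doxycycline-induced (0.5 μg/mL, 72 h at 37 °C) F508delCFTR with HRP in the fourth extracellular loop; compounds 8 points, 3-fold from 20 μM, 18-24 h at 33 °C. Surface HRP measured by luminol luminescence, normalised to DMSO and 3 μM reference corrector; EC50 from variable-slope sigmoidal fit of triplicate plates.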

The next assay concerns the target T2, F508del/F508del CFTR (Homo sapiens, UniProt P13569, DEL508-508).
T2 construct: cells isolated from CF patients with the homozygous mutation; endogenous in cells; host or cells: primary human bronchial epithelial (hBE) cells from F508del/F508del CF patients
Description: Transepithelial Clamp Circuit (TECC-24) conductance assay on primary human bronchial epithelial cells (hBE-TECC). Type of assay: cell-based. The note with it: for EC50: equivalent short circuit current, 18-24 hours at 37° C., with control potentiator; for Maximum % activity: relative to positive control (3 μM) coupled with control potentiator. The source says: Transepithelial Clamp Circuit on Human Bronchial Epithelial Cells Conductance Assay:
A cell based assay using the primary human bronchial epithelial cells (hBE) was used as a secondary assay to test novel F508delCFTR correctors for their activity on primary hBE cells with F508del/F508del CFTR mutation. The assay used a TECC-24 (Transepithelial Clamp Circuit for 24 wells) instrument that measures the functionality of the mutated channel by measuring the equivalent short circuit current (Ieq) generated by the polarized epithelial cells. The instrument works by measuring the transepithelial potential difference (Vt) and transepithelial resistance (Rt) in an open circuit format, and the Ieq is calculated by using Ohms law (Ieq=Vt/Rt). The assay was run in a 24-well format and all 24-wells were measured at the same time point giving a higher throughput for this assay.
Primary human bronchial epithelial (hBE) cells from F508del/F508delCFTR patients were expanded from 1×10^6 to 250×10^6 cells (Neuberger T, Burton B, Clark H and VanGoor F; Cystic Fibrosis, Methods in Mole Biol 741; eds. Amaral M D and Kunzelmann K, 2011). For this purpose, cells isolated from CF patients with the homozygous mutation were seeded onto 24 well Corning (Cat #3378) filter plates that were coated with 3T3 conditioned media and grown at an air-liquid interface for 35 days using an Ultroser® G supplemented differentiation media. Apical surface mucus was removed 72 hours before the experiment using 3 mM dithiothreitol (DTT) in phosphate buffered saline (PBS). The apical surface was washed again 24 hours before the experiment using PBS. The cells were incubated with the desired dose response of the corrector compounds 18-24 hours at 37° C., 5% CO2. The corrector compounds are only added on the basolateral side of the epithelial cells.
On the day of measuring the corrector activity on the TECC, the cells were switched into a bicarbonate and serum free F-12 Coon's medium and allowed to equilibrate for 30 minutes in a CO2 free incubator. At the time of measurement, the apical and basolateral sides of the filter were bathed with the F-12 Coon's modification media (with 20 mM 4-(2-hydroxyethyl)-1-piperazineethanesulfonic acid (HEPES), pH 7.4 (using 1 M tris(hydroxymethyl)aminomethane (Tris)), and the measurements were made at 36.5° C. Transepithelial voltage (Vt) and transepithelial resistance (Rt) were measured using a 24 channel transepithelial current clamp (TECC-24). Current responses to the sequential addition of benzamil (apical 6 μM addition; for inhibiting epithelial ENaC channel), forskolin (apical and basolateral 10 μM addition; for activating the CFTR channel), control potentiator (N-(3-carbamoyl-5,5,7,7-tetramethyl-4,7-dihydro-5H-thieno[2,3-c]pyran-2-yl)-1H-pyrazole-5-carboxamide; apical and basolateral 1 μM addition; for potentiating the CFTR channel) and bumetanide (basolateral 20 μM addition; for inhibiting the Na:2Cl:K co-transporter, an indirect measure of inhibiting the Cl— secretion driven by CFTR channel) were measured.
All plates contained negative controls (dimethyl sulfoxide, DMSO) which coupled with the control potentiator (N-(3-carbamoyl-5,5,7,7-tetramethyl-4,7-dihydro-5H-thieno[2,3-c]pyran-2-yl)-1H-pyrazole-5-carboxamide) sets the null response and positive controls (3 μM of 3-[(2R,4R)-4-({[1-(2,2-difluoro-1,3-benzodioxol-5-yl)cyclopropyl]carbonyl}amino)-7-methoxy-3,4-dihydro-2H-chromen-2-yl]benzoic acid) coupled with the control potentiator sets the 100% response to measure the correction of the mutated CFTR channel. The maximum percent activity is reported relative to the positive control value.
The % activity measured at each of the 6 test concentrations of the test compound was normalized to the on-plate positive control using the following formula: % activity=[(test compound response−DMSO response)/(positive control response−DMSO response)]*100 […]

T2 sequence (P13569 with tags, fused parts or gaps DEL508-508): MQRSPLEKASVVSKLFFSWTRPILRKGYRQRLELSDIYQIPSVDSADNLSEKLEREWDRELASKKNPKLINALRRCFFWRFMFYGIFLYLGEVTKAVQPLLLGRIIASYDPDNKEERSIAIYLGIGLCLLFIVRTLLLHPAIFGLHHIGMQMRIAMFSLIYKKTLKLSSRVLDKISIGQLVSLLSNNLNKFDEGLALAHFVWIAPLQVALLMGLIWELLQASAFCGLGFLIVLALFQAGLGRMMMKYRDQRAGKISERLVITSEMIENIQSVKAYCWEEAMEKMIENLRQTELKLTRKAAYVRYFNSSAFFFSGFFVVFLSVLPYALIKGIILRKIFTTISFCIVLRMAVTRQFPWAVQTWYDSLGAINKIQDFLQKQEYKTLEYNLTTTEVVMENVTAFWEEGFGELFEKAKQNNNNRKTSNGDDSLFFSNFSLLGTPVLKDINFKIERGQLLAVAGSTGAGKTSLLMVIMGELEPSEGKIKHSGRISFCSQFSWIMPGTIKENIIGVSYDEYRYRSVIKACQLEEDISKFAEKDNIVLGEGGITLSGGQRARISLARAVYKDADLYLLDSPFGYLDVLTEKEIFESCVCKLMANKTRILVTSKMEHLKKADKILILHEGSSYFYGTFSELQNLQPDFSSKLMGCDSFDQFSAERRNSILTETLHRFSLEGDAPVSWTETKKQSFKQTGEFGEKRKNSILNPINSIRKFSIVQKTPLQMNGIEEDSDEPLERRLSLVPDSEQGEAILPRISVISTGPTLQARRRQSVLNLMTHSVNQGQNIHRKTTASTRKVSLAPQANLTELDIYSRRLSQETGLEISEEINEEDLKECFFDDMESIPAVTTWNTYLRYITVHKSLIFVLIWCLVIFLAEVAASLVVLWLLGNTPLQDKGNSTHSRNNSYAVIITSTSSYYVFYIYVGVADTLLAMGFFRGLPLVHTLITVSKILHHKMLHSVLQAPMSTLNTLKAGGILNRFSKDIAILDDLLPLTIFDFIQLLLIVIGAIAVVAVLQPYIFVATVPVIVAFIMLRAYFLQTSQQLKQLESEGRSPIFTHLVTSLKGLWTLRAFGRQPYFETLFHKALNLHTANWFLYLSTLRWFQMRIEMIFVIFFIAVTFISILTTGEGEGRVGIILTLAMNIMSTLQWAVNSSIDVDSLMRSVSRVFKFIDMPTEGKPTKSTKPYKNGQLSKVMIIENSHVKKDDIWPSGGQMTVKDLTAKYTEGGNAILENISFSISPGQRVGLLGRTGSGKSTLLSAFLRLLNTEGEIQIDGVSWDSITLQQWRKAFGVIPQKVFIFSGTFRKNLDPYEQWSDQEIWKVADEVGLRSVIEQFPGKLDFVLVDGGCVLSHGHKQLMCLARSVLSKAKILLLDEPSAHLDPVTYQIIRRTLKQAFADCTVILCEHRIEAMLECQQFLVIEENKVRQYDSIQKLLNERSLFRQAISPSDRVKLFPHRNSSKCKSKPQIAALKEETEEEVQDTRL
T1 sequence (P13569 with tags, fused parts or gaps DEL508-508): as above

The EC50 is the concentration at which the effect is half-maximal. As for `O=C(N[C@@H]1C[C@H]([C@H]2CC[C@@H](C(=O)O)CC2)Oc2cc(OC(F)F)ccc21)C1(c2ccc3c(c2)OC(F)(F)O3)CC1` [Example 15A, cis-4-[(2R,4R)-4-{[1-(2,2-difluoro-2H-1,3-benzodioxol-5-yl)cyclopropane-1-carbonyl]amino}-7-(difluoromethoxy)-3,4-dihydro-2H-1-benzopyran-2-yl]cyclohexane-1-carboxylic acid], the EC50 on F508delCFTR is 0.53 µM; on F508del/F508del CFTR, 0.573 µM. Moreover, the Maximum % activity at F508delCFTR is reported as 94.7%; at F508del/F508del CFTR, 92.0%.

Take `O=C(N[C@@H]1C[C@H]([C@H]2CC[C@H](C(=O)O)CC2)Oc2cc(OC(F)F)ccc21)C1(c2ccc3c(c2)OC(F)(F)O3)CC1` [Example 15B, trans-4-[(2R,4R)-4-{[1-(2,2-difluoro-2H-1,3-benzodioxol-5-yl)cyclopropane-1-carbonyl]amino}-7-(difluoromethoxy)-3,4-dihydro-2H-1-benzopyran-2-yl]cyclohexane-1-carboxylic acid]: the results for the EC50 on F508delCFTR and on F508del/F508del CFTR were 0.11 µM and 0.03 µM, respectively. For the same compound, the values for the Maximum % activity on F508delCFTR and at F508del/F508del CFTR were 125.5% and 109.6%, respectively.

As for `COc1ccc2c(c1)O[C@@H](c1cccc(C(=O)O)c1)C[C@H]2NC(=O)[C@@]1(C)CCc2cc(C)ccc21` (single isomer, unassigned) [Example 8], on F508delCFTR, the EC50 is 0.1 µM and the Maximum % activity is reported as 91.3%. On F508del/F508del CFTR, the EC50 was determined as 0.024 µM and the Maximum % activity was found to be 85.6%.

With `O=C(N[C@@H]1C[C@H]([C@H]2CC[C@H](C(=O)O)CC2)Oc2cc(OC(F)(F)F)ccc21)C1(c2ccc3c(c2)OC(F)(F)O3)CC1` [Example 13, trans-4-[(2R,4R)-4-{[1-(2,2-difluoro-2H-1,3-benzodioxol-5-yl)cyclopropane-1-carbonyl]amino}-7-(trifluoromethoxy)-3,4-dihydro-2H-1-benzopyran-2-yl]cyclohexane-1-carboxylic acid], the concentration for a half-maximal effect (EC50) at F508delCFTR amounted to 0.03 µM; at F508del/F508del CFTR, 0.004 µM. The Maximum % activity is on record as 124.0% at F508delCFTR and 117.5% on F508del/F508del CFTR.

With “4-[(2R,4R)-4-(2-ethyl-2-phenylbutanamido)-7-methoxy-3,4-dihydro-2H-1-benzopyran-2-yl]benzoic acid [Example 79]”, on F508delCFTR, the concentration for a half-maximal effect (EC50) is more than 20 µM and the Maximum % activity is on record as −0.3%.

For the compound `COc1ccc2c(c1)O[C@@H](c1ccc(C(=O)O)cc1)C[C@H]2NC(=O)C1(c2ccc(Cl)cc2)CC1` [Example 108, 4-[(2R,4R)-4-{[1-(4-chlorophenyl)cyclopropane-1-carbonyl]amino}-7-methoxy-3,4-dihydro-2H-1-benzopyran-2-yl]benzoic acid], on F508delCFTR, the EC50 amounted to 0.17 µM and the Maximum % activity is 77.7%.

For the compound `COc1ccc(C(C)(C)C(=O)N[C@@H]2C[C@H](c3cccc(C(=O)O)c3)Oc3cc(OC)ccc32)cc1` [Example 25, 3-{(2R,4R)-7-methoxy-4-[2-(4-methoxyphenyl)-2-methylpropanamido]-3,4-dihydro-2H-1-benzopyran-2-yl}benzoic acid], on F508delCFTR, the EC50 turned out to be 0.23 µM and the Maximum % activity came to 39.5%.

In the case of `COc1ccc2c(c1)O[C@@H](c1ccc(C(=O)O)cc1)C[C@H]2NC(=O)C1(c2ccc(C#N)cc2)CC1` [Example 92, 4-[(2R,4R)-4-{[1-(4-cyanophenyl)cyclopropane-1-carbonyl]amino}-7-methoxy-3,4-dihydro-2H-1-benzopyran-2-yl]benzoic acid], at F508delCFTR, a half-maximal effect (EC50) was put at 0.35 µM and the Maximum % activity turned out to be 62.0%.

With `COc1ccc2c(c1)O[C@@H]([C@H]1CC[C@H](C(=O)O)CC1)C[C@H]2NC(=O)C1(c2ccc3c(c2)OC(F)(F)O3)CC1` [Example 11, trans-4-[(2R,4R)-4-{[1-(2,2-difluoro-2H-1,3-benzodioxol-5-yl)cyclopropane-1-carbonyl]amino}-7-methoxy-3,4-dihydro-2H-1-benzopyran-2-yl]cyclohexane-1-carboxylic acid], the EC50 on F508delCFTR was 0.31 µM; on F508del/F508del CFTR it was 0.021 µM. The figures for the Maximum % activity at F508delCFTR and at F508del/F508del CFTR were 124.5% and 104.3%, respectively.

As for `COc1ccc2c(c1)O[C@@H](c1ccc(C(=O)O)cc1)C[C@H]2NC(=O)C1(c2ccc(F)c(F)c2)CCC1` [Example 81, 4-[(2R,4R)-4-{[1-(3,4-difluorophenyl)cyclobutane-1-carbonyl]amino}-7-methoxy-3,4-dihydro-2H-1-benzopyran-2-yl]benzoic acid], on F508delCFTR, the midpoint of the response, the EC50, lay at 1.88 µM and the Maximum % activity worked out at 32.0%.

For `COC(=O)[C@H]1CC[C@@H]([C@H]2C[C@@H](NC(=O)C3(c4ccc5c(c4)OC(F)(F)O5)CC3)c3ccc(OC(F)F)cc3O2)CC1` (single isomer, unassigned) [Example 14D], on F508delCFTR, the EC50 came out at 0.63 µM and the Maximum % activity came to 121.5%.
